pIC50: −log10 of the molar value. Calls of active or inactive are those of the source. The calls are words filed in the database; no cut-off is given here.
Experiments:
[1] = target: T1, Matrix metalloproteinase-14 (Homo sapiens, UniProt P50281); conditions: 0.1 to 10 uM
Description: Inhibition of MT1-MMP-mediated proMMP-2 activation in human HT1080 cells stimulated with type I collagen for 24 hrs followed by compound addition at 0.1 to 10 uM and measured after 24 hrs by gelatin zymography assay

[2] = target: T1, Matrix metalloproteinase-14; conditions: 1 to 10 uM
Description: Inhibition of MT1-MMP-mediated proMMP-2 activation in human HT1080 cells stimulated with type I collagen for 24 hrs followed by compound addition assessed as reduction in processed form of MT1-MMP (40 KDa) level at 1 to 10 uM and measured after 24 hrs by Western blot analysis

[3] = target: T1, Matrix metalloproteinase-14; conditions: 10 uM
Description: Inhibition of MT1-MMP mediated collagenolytic activity in human HT1080 cells stimulated with type I collagen for 48 hrs followed by compound addition at 10 uM and measured after 48 hrs by Coomassie Blue staining-based collagen film degradation assay

[4] = target: T1, Matrix metalloproteinase-14; assay: Inhibition of MT1-MMP-mediated proMMP-2 activation in human HT1080 cells stimulated with type I collagen for 24 hrs followed by compound addition assessed as increase in active MT1-MMP (55 KDa) level at 1 to 10 uM and measured after 24 hrs by Western blot analysis; type: cell-based
[5] = target: T1, Matrix metalloproteinase-14; conditions: 0.01 uM
Description: Inhibition of MT1-MMP-mediated proMMP-2 activation in human HT1080 cells stimulated with type I collagen for 24 hrs followed by compound addition at 0.01 uM and measured after 24 hrs by gelatin zymography assay

[6] = target: T1, Matrix metalloproteinase-14; assay: Inhibition of MT1-MMP-mediated proMMP-2 activation in human HT1080 cells stimulated with type I collagen for 24 hrs followed by compound addition assessed as increase in proMT1-MMP (65 KDa) level at 1 to 10 uM and measured after 24 hrs by Western blot analysis; type: cell-based
Interstitial collagenase = target: T2, Interstitial collagenase (Homo sapiens, UniProt P03956); assay: Inhibition of recombinant human pro-MMP1 using Mca-Lys-Pro-Leu-Gly-Leu-Dap(Dnp)-Ala-Arg-NH2 as substrate preincubated for 3 hrs followed by substrate addition and measured every 10 secs for 15 mins in presence of APMA by fluorometric assay
T2 sequence (P03956 whole entry): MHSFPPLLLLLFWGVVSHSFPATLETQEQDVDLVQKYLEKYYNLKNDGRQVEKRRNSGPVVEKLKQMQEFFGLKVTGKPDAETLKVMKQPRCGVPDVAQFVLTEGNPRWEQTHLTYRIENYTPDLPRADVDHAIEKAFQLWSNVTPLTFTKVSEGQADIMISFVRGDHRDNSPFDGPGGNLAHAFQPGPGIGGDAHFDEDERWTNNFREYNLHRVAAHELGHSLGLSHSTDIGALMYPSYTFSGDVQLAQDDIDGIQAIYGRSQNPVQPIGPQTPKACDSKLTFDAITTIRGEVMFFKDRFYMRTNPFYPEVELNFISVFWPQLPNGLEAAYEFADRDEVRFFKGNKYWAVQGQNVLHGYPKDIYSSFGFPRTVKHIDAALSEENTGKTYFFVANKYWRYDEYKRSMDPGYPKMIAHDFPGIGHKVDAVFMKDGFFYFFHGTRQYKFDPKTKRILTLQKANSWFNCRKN

[7] = target: T1, Matrix metalloproteinase-14; assay: Inhibition of recombinant human MT1-MMP catalytic domain using Mca-Lys-Pro-Leu-Gly-Leu-Dap(Dnp)-Ala-Arg-NH2 as substrate preincubated for 3 hrs followed by substrate addition and measured every 10 secs for 15 min by fluorometric assay
[8] = target: 72 kDa type IV collagenase (Homo sapiens, UniProt P08253); assay: Inhibition of recombinant human proMMP2 using Mca-Lys-Pro-Leu-Gly-Leu-Dap(Dnp)-Ala-Arg-NH2 as substrate preincubated for 3 hrs followed by substrate addition and measured every 10 secs for 15 mins in presence of APMA by fluorometric assay
Chain of 72 kDa type IV collagenase (P08253 whole entry): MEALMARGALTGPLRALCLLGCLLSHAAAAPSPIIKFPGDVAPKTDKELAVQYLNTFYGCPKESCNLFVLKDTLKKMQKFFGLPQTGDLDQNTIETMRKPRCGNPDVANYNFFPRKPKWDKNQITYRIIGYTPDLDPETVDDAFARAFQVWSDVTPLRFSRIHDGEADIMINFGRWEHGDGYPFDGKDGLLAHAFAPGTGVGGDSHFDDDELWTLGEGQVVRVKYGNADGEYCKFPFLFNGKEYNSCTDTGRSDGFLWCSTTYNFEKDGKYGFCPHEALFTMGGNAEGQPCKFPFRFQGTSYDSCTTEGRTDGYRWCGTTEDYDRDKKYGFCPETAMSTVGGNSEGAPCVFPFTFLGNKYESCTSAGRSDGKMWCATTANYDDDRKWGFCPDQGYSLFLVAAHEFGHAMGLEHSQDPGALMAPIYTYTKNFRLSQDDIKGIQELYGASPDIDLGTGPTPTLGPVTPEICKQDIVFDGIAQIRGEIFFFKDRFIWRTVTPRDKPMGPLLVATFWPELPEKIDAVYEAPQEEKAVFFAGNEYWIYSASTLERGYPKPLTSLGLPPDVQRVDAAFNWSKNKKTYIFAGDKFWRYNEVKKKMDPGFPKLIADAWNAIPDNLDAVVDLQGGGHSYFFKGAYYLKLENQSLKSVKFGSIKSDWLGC

[9] = target: Matrix metalloproteinase-9 (Homo sapiens, UniProt P14780); assay: Inhibition of recombinant human proMMP9 using Mca-Lys-Pro-Leu-Gly-Leu-Dap(Dnp)-Ala-Arg-NH2 as substrate preincubated for 3 hrs followed by substrate addition and measured every 10 secs for 15 mins in presence of APMA by fluorometric assay
Chain of Matrix metalloproteinase-9 (P14780 whole entry): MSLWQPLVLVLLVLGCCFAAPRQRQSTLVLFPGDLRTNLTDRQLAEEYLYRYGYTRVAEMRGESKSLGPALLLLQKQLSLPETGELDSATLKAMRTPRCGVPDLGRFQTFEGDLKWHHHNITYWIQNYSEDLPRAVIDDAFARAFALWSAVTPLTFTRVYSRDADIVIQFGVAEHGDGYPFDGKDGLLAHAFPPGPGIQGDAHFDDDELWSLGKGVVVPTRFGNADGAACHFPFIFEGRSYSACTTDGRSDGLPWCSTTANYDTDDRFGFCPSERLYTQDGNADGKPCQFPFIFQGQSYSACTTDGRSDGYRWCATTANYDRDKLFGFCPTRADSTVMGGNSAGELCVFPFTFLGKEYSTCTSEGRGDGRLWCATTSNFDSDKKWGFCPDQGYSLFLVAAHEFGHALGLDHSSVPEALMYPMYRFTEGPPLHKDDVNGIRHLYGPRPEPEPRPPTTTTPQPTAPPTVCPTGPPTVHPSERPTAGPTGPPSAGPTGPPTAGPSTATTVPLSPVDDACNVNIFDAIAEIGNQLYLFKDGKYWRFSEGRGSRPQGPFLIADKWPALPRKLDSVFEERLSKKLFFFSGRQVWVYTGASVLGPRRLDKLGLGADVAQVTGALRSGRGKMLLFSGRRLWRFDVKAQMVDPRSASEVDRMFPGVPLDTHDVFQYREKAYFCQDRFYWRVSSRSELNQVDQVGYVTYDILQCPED

[10] = target: T1, Matrix metalloproteinase-14; assay: Inhibition of MT1-MMP mediated collagenolytic activity in human HT1080 cells stimulated with type I collagen for 48 hrs followed by compound addition at 1 to 10 uM and measured after 48 hrs by Coomassie Blue staining-based collagen film degradation assay; type: cell-based
[11] = target: T1, Matrix metalloproteinase-14; assay: Inhibition of MT1-MMP-mediated proMMP-2 activation in human HT1080 cells stimulated with type I collagen for 24 hrs followed by compound addition at <0.1 uM and measured after 24 hrs by gelatin zymography assay; type: cell-based
HT-1080 = assay: Cytotoxicity against human HT1080 cells at 10 to 50 uM after 4 hrs by MTS assay; type: cell-based; conditions: ht-1080, 4 h
[12] = Aqueous solubility of the compound; type: physicochemical; conditions: water (aqueous)
[13] = target: T1, Matrix metalloproteinase-14; assay: Inhibition of MT1-MMP-mediated proMMP-2 activation in human HT1080 cells stimulated with type I collagen for 24 hrs followed by compound addition at 1 to 10 uM and measured after 24 hrs by gelatin zymography assay; type: cell-based
[14] = target: T1, Matrix metalloproteinase-14; assay: Inhibition of MT1-MMP-mediated collagen invasion in human HT1080 cells attached to gelatin-coated Cytodex 3 microcarrier beads assessed as cell migration out from the bead surface into collagen matrix at 1 to 10 uM and measured after overnight incubation by microcarriers beads invasion assay; type: cell-based
[15] = target: T1, Matrix metalloproteinase-14; conditions: 10 uM; remark: listed apart in the source
Description: Inhibition of MT1-MMP-mediated proMMP-2 activation in human HT1080 cells stimulated with type I collagen for 24 hrs followed by compound addition at 10 uM and measured after 24 hrs by gelatin zymography assay

[16] = target: T1, Matrix metalloproteinase-14; assay: Inhibition of MT1-MMP-mediated proMMP-2 activation in human HT1080 cells stimulated with type I collagen for 24 hrs followed by compound addition assessed as increase in proMT1-MMP (65 KDa) level at 0.01 to 10 uM and measured after 24 hrs by Western blot analysis; type: cell-based
[17] = target: T1, Matrix metalloproteinase-14; conditions: 0.01 to 10 uM
Description: Inhibition of MT1-MMP-mediated proMMP-2 activation in human HT1080 cells stimulated with type I collagen for 24 hrs followed by compound addition assessed as increase in active MT1-MMP (55 KDa) level at 0.01 to 10 uM and measured after 24 hrs by Western blot analysis

[18] = target: T1, Matrix metalloproteinase-14; conditions: 0.01 to 10 uM; remark: listed apart in the source
Description: Inhibition of MT1-MMP-mediated proMMP-2 activation in human HT1080 cells stimulated with type I collagen for 24 hrs followed by compound addition assessed as reduction in processed form of MT1-MMP (40 KDa) level at 0.01 to 10 uM and measured after 24 hrs by Western blot analysis

With `CNC(=O)[C@H](Cc1c[nH]c2ccccc12)NC(=O)[C@@H](CC(=O)NO)CC(C)C` the inhibition [1] was “Active”, the inhibition [2] was “Active” and the inhibition [3] was 100%. For the same compound, the inhibition [4] was “Active”, the inhibition [5] was “inactive” and the inhibition [6] was “Active”.

With `O=C(NCC[C@@H](NS(=O)(=O)c1ccc(-c2ccccc2)cc1)C(=O)NO)c1cccc(C(=O)NCC[C@@H](NS(=O)(=O)c2ccc(-c3ccccc3)cc2)C(=O)NO)c1` the pIC50 (Interstitial collagenase) was 6.06, the pIC50 [7] was 7.10 and the pIC50 [8] was 8.92. It also gave a pIC50 [9] of 8.90.

`COc1ccc(-c2ccc(S(=O)(=O)N(CCNC(=O)CCCNC(=O)c3cccc(C(=O)NCCCC(=O)NCCN([C@H](CCN4C(=O)c5ccccc5C4=O)C(=O)NO)S(=O)(=O)c4ccc(-c5ccc(OC)cc5)cc4)c3)[C@H](CCN3C(=O)c4ccccc4C3=O)C(=O)NO)cc2)cc1` gave a pIC50 (Interstitial collagenase) of 7.35, a pIC50 [7] of 8.15 and a pIC50 [8] of 8.39. The pIC50 [9] was 8.68.

With `COc1ccc(-c2ccc(S(=O)(=O)N(CCNC(=O)c3cccc(C(=O)NCCN([C@H](CCN4C(=O)c5ccccc5C4=O)C(=O)NO)S(=O)(=O)c4ccc(-c5ccc(OC)cc5)cc4)c3)[C@H](CCN3C(=O)c4ccccc4C3=O)C(=O)NO)cc2)cc1` the inhibition [10] was “Active”, the inhibition [11] was “inactive” and the pIC50 (Interstitial collagenase) was 6.82. The pIC50 [7] was 7.85, the inhibition [4] was “Dose-dependent effect” and the pIC50 [8] was 7.89. The Activity (HT-1080) was “Non-Toxic”, the solubility [12] was greater than 1000 µM and the pIC50 [9] was 7.85. The inhibition [13] was “Active”, the inhibition [6] was “Dose-dependent effect” and the inhibition [14] was “Active”.

In the case of `COc1ccc(-c2ccc(S(=O)(=O)N(OC(C)C)[C@H](CCN3C(=O)c4ccccc4C3=O)C(=O)NO)cc2)cc1`, the inhibition [10] was “Active”, the inhibition [15] was “Active” and the pIC50 (Interstitial collagenase) was 6.77. The inhibition [16] was “inactive”, the Activity (HT-1080) was “Toxic” and the inhibition [17] was “inactive”. For the same compound, the inhibition [18] was “inactive” and the inhibition [14] was “Active”.

`O=C(CCCNC(=O)c1cccc(C(=O)NCCCC(=O)NCC[C@@H](NS(=O)(=O)c2ccc(-c3ccccc3)cc2)C(=O)NO)c1)NCC[C@@H](NS(=O)(=O)c1ccc(-c2ccccc2)cc1)C(=O)NO` gave a pIC50 (Interstitial collagenase) of 6.81, a pIC50 [7] of 7.39 and a pIC50 [8] of 8.80. For the same compound, the pIC50 [9] was 8.06.

From ChEMBL document CHEMBL4371035, “Design, synthesis and biological evaluation of bifunctional inhibitors of membrane type 1 matrix metalloproteinase (MT1-MMP)” (Bioorg Med Chem, 2019)
